Patent publication US6498275B1, “Use of compounds for the elevation of pyruvate dehydrogenase activity” (AstraZeneca AB, priority 1998, dated 2002)

Key:
[1] = cited from earlier work
PDH = conditions: cited from earlier work

Structure (SMILES) | melting point | further results
CC(C)(O)C(=O)Nc1ccc(Sc2ccc(NS(C)(=O)=O)cc2)cc1Cl | 138 to 140 °C | –
O=C(O)C(Cl)Cl [DCA, dichloroacetic acid] | – | glycaemia ([1]; Stacpoole et al. 1978): reducing glycaemia; plasma glucose ([1]; after repeated administration (Evans and Stacpoole 1982)): significant decrease in plasma glucose; activity of PDH (PDH; after acute administration in animals (Vary et al. 1988)): increases the activity of PDH; proportion of PDH in its active form (PDH; single administration, 150 mg/kg, intraperitoneally (Vary et al. 1988)): increased the proportion of PDH in its active form
C[S+]([O-])c1ccccc1S(=O)(=O)c1ccc(NC(=O)[C@@](C)(O)C(F)(F)F)c(Cl)c1 (stereo partly shown) | 118 to 120 °C | –
CC(C)(O)C(=O)Nc1ccc(S(=O)(=O)c2ccccc2)cc1F | 155.5 to 156.5 °C | –
C[C@@](O)(C(=O)Nc1ccc(S(=O)(=O)c2ccccc2NCCO)cc1Cl)C(F)(F)F | 68 to 70 °C | –
CC(=O)Nc1cc(S(=O)(=O)c2ccccc2)ccc1NC(=O)C(C)(O)C(F)(F)F (stereo not shown) | 205 to 207 °C | –
CC(C)(O)C(=O)Nc1ccc(Sc2ccccc2)cc1F | 91 to 92.5 °C | –
